The record followed here is ChEMBL document CHEMBL1122144, “(+/-)-4-Aryl-4,5-dihydro-3H-1,3-benzodiazepines. 1. Synthesis and evaluation of (+/-)-4,5-dihydro-2,3-dimethyl-4-phenyl-3H-1,3-benzodiazepine and analogues as potential antidepressant agents” (J Med Chem, 1982).

Each structure is given as a SMILES string. pIC50: −log10 of the molar value. Bounds are passed on as bounds.

Assay [1] relates to Mus musculus. Kind of assay: In vivo antidepressant activity assessed by prevention of tetrabenazine-induced ptosis in mice following i.p. administration. The format is functional.
The species entered for assay [2] is Mus musculus. In words: Compound was tested for physostigmine lethality in mouse. It is filed as functional.
The test system of assay [3] is Mus musculus. Kind of assay: Compound was tested in vivo for antagonism of oxotremorine induced -tremors in mouse. The format is functional.
Assay [4] deals with Mus musculus. Kind of assay: Compound was tested in vivo for antagonism of oxotremorine induced salivation in mouse. It is filed as functional.
Assay [5] deals with Mus musculus. Kind of assay: Compound was tested in vivo for potential antidepressant activity which was assessed by its prevention of tetrabenazine-induced ptosis in mice. The format is functional.
For assay [6], the system named is Mus musculus. Kind of assay: In vivo for the inhibition of potentiation of yohimbine -induced toxicity in mouse. The format is functional.
Assay [7] is described as follows: Compound was tested in vitro for its ability to displace [3H]quinuclidine benzylate (QNB) from Muscarinic acetylcholine receptor on rat whole brain membranes. The format is cell membranes.
Assay [8] is filed under the species Rattus norvegicus. In words: In vitro inhibition against neuronal uptake of dopamine in striatum. The format is functional.
The species named for assay [9] is Rattus norvegicus. In words: In vitro inhibition against neuronal uptake of norepinephrine in whole brain. It is filed as functional.
The species entered for assay [10] is Rattus norvegicus. Kind of assay: In vitro inhibition against neuronal uptake of serotonin in whole brain. The format is functional.
The test system of assay [11] is Rattus norvegicus. Kind of assay: Compound was screened in vivo for antidepressant activity by 5 HTP potentiation method in rat. It is filed as functional.
For assay [12], the system named is Mus musculus. Kind of assay: In vivo inhibition of potentiation of yohimbine -induced toxicity in mouse. It is filed as functional.
Assay [13] relates to Rattus norvegicus. In words: In vivo effective dose for intraperitoneal administration required for the muricidal activity was determined in rat. The format is functional. Conditions: ip.
Assay [14] is filed under the species Rattus norvegicus. Kind of assay: In vitro inhibition against neuronal uptake of dopamine in rat striatum. The format is functional.
For assay [15], the species on record is Rattus norvegicus. Kind of assay: In vitro inhibition against neuronal uptake of norepinephrine in rat hypothalamus. The format is functional.
The species named for assay [16] is Rattus norvegicus. Kind of assay: In vitro inhibition against neuronal uptake of norepinephrine in rat whole brain. It is filed as functional.
Assay [17] deals with Rattus norvegicus. In words: Compound was screened in vivo for antidepressant activity by 5 HTP potentiation method in rat. The format is functional.
The test system of assay [18] is Rattus norvegicus. Kind of assay: Compound was screened in vivo for antidepressant activity by tryptamine seizure potentiation method in rat. It is filed as functional.
Assay [19] relates to Rattus norvegicus. Kind of assay: Compound was tested for beta -adrenergic sensitivity when administered to rats at 10 mg/kg, perorally, twice daily for 10 days. The format is functional. Conditions: 240 h, route oral.
Assay [20] concerns Mus musculus. In words: Inhibition of pentylenetetrazole lethality in mice (po). It is filed as functional.
For assay [21], the system named is Mus musculus. In words: Prevention of tetrabenazine-induced ptosis in mice (ip). It is filed as functional.
Assay [22] deals with Mus musculus. In words: Prevention of amphetamine aggregation toxicity in mice (po). It is filed as functional.
For assay [23], the system named is Rattus norvegicus. In words: Potentiation of 5-HT induced behavioral syndrome in pargyline-pretreated rats (ip). It is filed as functional.
Assay [24] relates to Rattus norvegicus. Kind of assay: In vivo for the inhibition of muricidal activity. The effective dose (intraperitoneally) required for the activity was determined in rat. The format is functional. Conditions: ip.
Assay [25] relates to Rattus norvegicus. Kind of assay: Compound was tested in vitro for beta -adrenergic sensitivity and administered to rats at 10 mg/kg, perorally, twice daily for 10 days. The format is functional. Conditions: 240 h, route oral.
Setting [26] is: Mus musculus, ip, read-out: ED50.

In general, ED50 refers to the dose at which the effect has come halfway, by size or by number of responders. With `CC1=Nc2ccccc2CC(c2ccccc2)N1Cc1ccccc1` (stereo not given), the ED50 in assay [1] (setting [26]) was over 20 mg/kg.

The term pIC50 denotes −log10 of the IC50, conventionally taken in molar units. Higher therefore signals a small IC50. `CN(C)CCC=C1c2ccccc2CCc2ccccc21` [AMITRIPTYLINE]: the 50% effective dose (ED50) was 9.6 mg/kg in [2]; 1.3 mg/kg in assay [3]; over 5 mg/kg in [4]; 1.9 mg/kg in assay [5]; 8 mg/kg in [6]; 1.5 mg/kg in assay [1] (setting [26]). Further, the ED50 in assay [11] stood at 7.1 mg/kg. Further, the pIC50 in assay [7] is 5.52; in assay [8] it was 4.85; in [9] it was 5.33; in [10], 5.70.

Consider `CC1=NC(c2ccccc2)Cc2ccccc2N1` (stereo not given), for which, in [1] (setting [26]), the ED50 was over 20 mg/kg.

For the compound `CCCN1C(C)=Nc2ccccc2CC1c1ccccc1` (stereo not given), in assay [1] (setting [26]), the ED50 is over 5 mg/kg.

For the compound `CN1C=Nc2ccccc2CC1c1ccccc1` (stereo not given), the ED50 in assay [1] (setting [26]) was 9.7 mg/kg.

Broadly, the inhibition in vivo is the change of the read-out against control, counted positive when it falls. With `CC1=Nc2ccccc2CC(c2ccccc2)N1C.Cl` (stereo not given) [DAZEPINIL HYDROCHLORIDE], the ED50 in assay [3] was over 25 mg/kg; in assay [4] it was over 25 mg/kg; in assay [12], 5.9 mg/kg; in assay [1] it was 2.1 mg/kg; in assay [1] (setting [26]) it was 1.5 mg/kg; in assay [13] it was over 20 mg/kg. For the same compound, the median effective dose (ED50) in [17] is over 10 mg/kg; in [18], over 25 mg/kg. The pIC50 in [14] was 5.28; in assay [15], 6.05; in [16], 5.77; in assay [10], 5.08. Moreover, the inhibition in vivo at 10 mg/kg in assay [19] was -44%.

For the compound `CCC1=Nc2ccccc2CC(c2ccccc2)N1C` (stereo not given), the 50% effective dose (ED50) in assay [1] (setting [26]) turned out to be 0.6 mg/kg.

With `CCC1=NC(c2ccccc2)Cc2ccccc2N1` (stereo not given), the median effective dose (ED50) in [1] (setting [26]) was over 5 mg/kg.

On to `C1=NC(c2ccccc2)Cc2ccccc2N1` (stereo not given), for which the ED50 in assay [1] (setting [26]) was about 20 mg/kg.

On to `CC(=O)C(Cc1ccccc1NCN1C(=O)CCC1=O)c1ccccc1` (stereo not given), for which the ED50 in assay [20] was over 40 mg/kg; in assay [21] it was over 20 mg/kg; in [22], over 20 mg/kg; in assay [23], over 10 mg/kg.

For the compound `CNCCCN1c2ccccc2CCc2ccccc21` [DESIPRAMINE], the values for the ED50 in assay [24] and in [18] were 8.2 mg/kg and over 25 mg/kg, respectively. In assay [25], the inhibition in vivo at 10 mg/kg was -50%.

With `CNC(Cc1ccccc1[N+](=O)[O-])c1ccccc1` (stereo not given), the median effective dose (ED50) in [20] is over 40 mg/kg; in [22], over 20 mg/kg; in assay [23], over 10 mg/kg.

For the compound `CN1C(c2ccccc2)=Nc2ccccc2CC1c1ccccc1` (stereo not given), in assay [1] (setting [26]), the ED50 is over 20 mg/kg.

Consider `CC1=NC(c2ccccc2)Cc2ccccc2N1c1ccccc1` (stereo not given), for which, in assay [1] (setting [26]), the median effective dose (ED50) was over 20 mg/kg.

For the compound `CCN1C(C)=Nc2ccccc2CC1c1ccccc1` (stereo not given), the median effective dose (ED50) in [1] (setting [26]) is about 20 mg/kg.

Turning to `CN1C(C2CC2)=Nc2ccccc2CC1c1ccccc1` (stereo not given), in assay [1] (setting [26]), the 50% effective dose (ED50) was over 20 mg/kg.

Regarding `c1ccc(C2=NC(c3ccccc3)Cc3ccccc3N2)cc1` (stereo not given), the ED50 in [1] (setting [26]) is over 20 mg/kg.

On to `CCCC1=Nc2ccccc2CC(c2ccccc2)N1C` (stereo not given), for which the 50% effective dose (ED50) in assay [1] (setting [26]) was over 20 mg/kg.

On to `CC1=Nc2ccccc2CC(c2ccccc2)N1CC1CCCCC1` (stereo not given), for which the median effective dose (ED50) in [1] (setting [26]) is about 20 mg/kg.

Turning to `CC1=NC(c2ccccc2)Cc2ccccc2N1C` (stereo not given), the ED50 in [1] (setting [26]) was over 20 mg/kg.

For the compound `c1ccc(C2Cc3ccccc3NC(C3CC3)=N2)cc1` (stereo not given), the 50% effective dose (ED50) in assay [1] (setting [26]) was over 20 mg/kg.
